{
  "source": "ChEMBL document CHEMBL1125828",
  "about": "(J Med Chem, 1991)",
  "key": {"[1]": {"molecular_target": "GABA-A receptor; anion channel", "assay": "Inhibition of [3H]GABA binding to gamma-aminobutyric-acid A (GABA-A) receptor", "type": "protein-complex assay, Rattus norvegicus"}, "[2]": {"molecular_target": "GABA B receptor (Rattus norvegicus, UniProt O88871+Q9Z0U4)", "sequence (Q9Z0U4 whole entry)": "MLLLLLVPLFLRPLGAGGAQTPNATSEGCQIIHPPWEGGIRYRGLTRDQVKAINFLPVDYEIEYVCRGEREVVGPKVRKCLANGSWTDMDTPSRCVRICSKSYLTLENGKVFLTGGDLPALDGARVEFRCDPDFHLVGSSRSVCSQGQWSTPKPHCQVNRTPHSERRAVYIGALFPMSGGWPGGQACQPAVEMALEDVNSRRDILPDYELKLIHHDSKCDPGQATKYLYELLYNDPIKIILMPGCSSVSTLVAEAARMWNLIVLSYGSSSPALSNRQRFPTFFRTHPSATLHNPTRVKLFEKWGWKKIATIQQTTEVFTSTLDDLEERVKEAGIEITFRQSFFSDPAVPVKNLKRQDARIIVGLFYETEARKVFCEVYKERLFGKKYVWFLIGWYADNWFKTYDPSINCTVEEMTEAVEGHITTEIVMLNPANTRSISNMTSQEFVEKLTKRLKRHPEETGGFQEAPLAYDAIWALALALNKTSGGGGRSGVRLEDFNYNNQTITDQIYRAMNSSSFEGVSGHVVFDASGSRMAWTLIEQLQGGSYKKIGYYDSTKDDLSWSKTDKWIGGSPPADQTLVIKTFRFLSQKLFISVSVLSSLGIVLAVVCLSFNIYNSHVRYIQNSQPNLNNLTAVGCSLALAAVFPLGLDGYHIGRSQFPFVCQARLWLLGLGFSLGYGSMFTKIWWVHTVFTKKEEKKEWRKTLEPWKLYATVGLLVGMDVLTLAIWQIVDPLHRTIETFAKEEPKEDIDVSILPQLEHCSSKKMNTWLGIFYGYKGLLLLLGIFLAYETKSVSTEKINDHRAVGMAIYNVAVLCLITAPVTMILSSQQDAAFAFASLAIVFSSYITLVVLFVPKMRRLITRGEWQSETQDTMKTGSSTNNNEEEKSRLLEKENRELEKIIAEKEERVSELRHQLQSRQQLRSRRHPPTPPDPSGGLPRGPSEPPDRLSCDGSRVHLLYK", "sequence (O88871 whole entry)": "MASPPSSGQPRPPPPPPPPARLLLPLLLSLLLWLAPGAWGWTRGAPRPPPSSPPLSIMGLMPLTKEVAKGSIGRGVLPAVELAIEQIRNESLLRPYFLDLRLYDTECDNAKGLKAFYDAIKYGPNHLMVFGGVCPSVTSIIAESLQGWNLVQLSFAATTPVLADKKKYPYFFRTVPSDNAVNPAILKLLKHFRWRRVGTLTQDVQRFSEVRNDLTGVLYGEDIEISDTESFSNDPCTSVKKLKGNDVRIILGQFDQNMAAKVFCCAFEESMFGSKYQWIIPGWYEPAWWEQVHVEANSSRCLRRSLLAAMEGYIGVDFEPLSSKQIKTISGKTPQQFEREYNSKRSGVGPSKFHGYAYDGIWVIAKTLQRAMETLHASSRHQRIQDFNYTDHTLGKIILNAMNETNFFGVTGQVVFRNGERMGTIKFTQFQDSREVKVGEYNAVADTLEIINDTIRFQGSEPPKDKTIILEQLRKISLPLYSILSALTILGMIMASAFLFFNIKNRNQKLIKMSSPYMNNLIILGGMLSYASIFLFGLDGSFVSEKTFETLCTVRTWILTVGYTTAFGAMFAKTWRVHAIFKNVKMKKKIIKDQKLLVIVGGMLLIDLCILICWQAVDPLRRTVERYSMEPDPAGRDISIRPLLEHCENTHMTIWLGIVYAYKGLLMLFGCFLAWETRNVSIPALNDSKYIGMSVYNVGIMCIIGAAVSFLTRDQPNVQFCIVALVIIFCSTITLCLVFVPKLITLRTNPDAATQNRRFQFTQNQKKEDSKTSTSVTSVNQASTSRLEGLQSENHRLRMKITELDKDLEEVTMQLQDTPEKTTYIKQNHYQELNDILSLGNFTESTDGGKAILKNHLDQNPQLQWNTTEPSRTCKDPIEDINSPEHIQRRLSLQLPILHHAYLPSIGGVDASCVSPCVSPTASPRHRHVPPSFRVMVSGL", "assay": "Displacement of [3H]baclofen from gamma-aminobutyric-acid B receptor", "type": "protein-complex assay"}},
  "data": [
    {"smiles": "NCC1(CC(=O)O)CCCc2ccccc21", "note": "(configuration not stated)", "values": [
      {"measurement": "IC50", "setting": "[1]", "value": "> 100", "unit": "µM"},
      {"measurement": "IC50", "setting": "[2]", "value": "> 100", "unit": "µM"}
    ]},
    {"smiles": "NCC1(CC(=O)O)CCc2ccccc21", "note": "(configuration not stated)", "values": [
      {"measurement": "IC50", "setting": "[1]", "value": "> 100", "unit": "µM"},
      {"measurement": "IC50", "setting": "[2]", "value": "> 100", "unit": "µM"}
    ]},
    {"smiles": "NCC1(CC(=O)O)CCc2cc(Cl)ccc21", "note": "(configuration not stated)", "values": [
      {"measurement": "IC50", "setting": "[1]", "value": "> 100", "unit": "µM"},
      {"measurement": "IC50", "setting": "[2]", "value": "> 100", "unit": "µM"}
    ]},
    {"smiles": "NCC(CC(=O)O)c1c(Cl)cccc1Cl", "note": "(configuration not stated)", "values": [
      {"measurement": "IC50", "setting": "[1]", "value": "> 100", "unit": "µM"},
      {"measurement": "IC50", "setting": "[2]", "value": "> 100", "unit": "µM"}
    ]},
    {"smiles": "NCC1(CC(=O)O)Cc2ccccc21", "note": "(configuration not stated)", "values": [
      {"measurement": "IC50", "setting": "[1]", "value": "> 100", "unit": "µM"},
      {"measurement": "IC50", "setting": "[2]", "value": "> 100", "unit": "µM"}
    ]},
    {"smiles": "NCC(CC(=O)O)c1ccc(Cl)cc1Cl", "note": "(configuration not stated)", "values": [
      {"measurement": "IC50", "setting": "[1]", "value": "> 100", "unit": "µM"},
      {"measurement": "IC50", "setting": "[2]", "value": 11, "unit": "µM"}
    ]}
  ]
}
